Where a name gives a salt, the structure may show the parent alone.

For one assay, the target named is T1, gastrin receptor (Rattus norvegicus, UniProt P30553).
T1 construct: The stomach was excised and flushed with ca. 1 ml of unbuffered physiological saline solution; from tissue; host or cells: isolated whole stomach of immature rats (ca. 21 days old)
T1 sequence (P30553 1-452): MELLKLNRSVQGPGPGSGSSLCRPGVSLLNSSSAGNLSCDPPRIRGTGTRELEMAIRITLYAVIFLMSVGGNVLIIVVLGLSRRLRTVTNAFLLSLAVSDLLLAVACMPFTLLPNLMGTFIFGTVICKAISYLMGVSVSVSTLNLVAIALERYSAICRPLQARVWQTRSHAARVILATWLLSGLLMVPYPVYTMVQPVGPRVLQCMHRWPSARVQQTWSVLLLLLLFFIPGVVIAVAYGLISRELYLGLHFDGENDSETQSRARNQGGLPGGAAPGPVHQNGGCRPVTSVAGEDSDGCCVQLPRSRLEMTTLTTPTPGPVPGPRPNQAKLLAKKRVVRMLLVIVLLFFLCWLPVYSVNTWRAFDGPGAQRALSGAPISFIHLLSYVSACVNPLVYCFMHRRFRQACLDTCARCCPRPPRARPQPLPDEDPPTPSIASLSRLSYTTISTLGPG
Put plainly: gastrin antagonist activity in immature rat stomach assay (pentagastrin dose-response, acid secretion). The settings on record: isolated immature rat stomach, cumulative pentagastrin dose-response curves, read-out: Gastrin pKb (converted). An outline of the steps:
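Isolated, lumen-perfused stomach from immature rats (33-50 g, ca. 21 days) in a 37° organ bath with 3×10^−8 M 5-methylfurmethide, gassed 95% O2/5% CO2. Compound added serosally after 120 min stabilisation; cumulative pentagastrin dose-response curves begun 60 min later, acid secretion followed by perfusate pH.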

The target of the next assay is T2, CCKB receptor (Mus musculus, UniProt P56481).
T2 construct: The whole brains from male mice (CD1 22-25 g; Charles River) were removed; from tissue; host or cells: cerebral cortex membranes of male CD1 mice
T2 sequence (P56481 1-453): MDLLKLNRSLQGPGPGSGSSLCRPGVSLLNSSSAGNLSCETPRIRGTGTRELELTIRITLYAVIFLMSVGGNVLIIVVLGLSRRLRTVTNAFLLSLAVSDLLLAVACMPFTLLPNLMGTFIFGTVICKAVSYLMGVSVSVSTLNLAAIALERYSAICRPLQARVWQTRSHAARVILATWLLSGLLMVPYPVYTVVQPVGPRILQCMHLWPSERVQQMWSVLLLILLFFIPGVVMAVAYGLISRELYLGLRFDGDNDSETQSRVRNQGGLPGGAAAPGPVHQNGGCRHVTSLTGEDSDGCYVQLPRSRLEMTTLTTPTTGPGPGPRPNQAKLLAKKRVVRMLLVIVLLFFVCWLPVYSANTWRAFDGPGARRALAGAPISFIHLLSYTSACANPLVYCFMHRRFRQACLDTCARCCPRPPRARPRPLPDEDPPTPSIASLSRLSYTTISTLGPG
Briefly: CCKB receptor radioligand binding assay in mouse cortical membranes. The settings on record: [125I]-CCK8(S) 200 pM, 150 min at 21±3°, read-out: CCKB pKi (converted). A digest of the protocol:
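Bound radioactivity was gamma-counted after rapid GF/B filtration and cold 50 mM Tris-HCl (pH 7.4) washes. The tissue was cerebral cortex from male CD1 mice, prepared as twice-centrifuged membranes in pH 7.2 HEPES/NaCl/KCl/MgCl2/EDTA buffer with bacitracin at 20 mg/ml original wet weight.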

Regarding `CC(C)C1CCC(c2nc(C(=O)Nc3cccc(C(=O)O)c3)c(CCC34CC5CC(CC(C5)C3)C4)[nH]2)CC1` (stereo not drawn) [Example 194, 3-{[5-(2-Adamantan-1-yl-ethyl)-2-(4-isopropyl-cyclohexyl)-1H-imidazole-4-carbonyl]-amino}-benzoic Acid], the Kb at gastrin receptor is 525 nM. The Ki on CCKB receptor was 158 nM.
With `CC1(CCc2[nH]c(C3CCCCC3)nc2C(=O)Nc2cccc(C(=O)O)c2)CCCCC1` [Example 133, 3-({2-Cyclohexyl-5-[2-(1-methyl-cyclohexyl)-ethyl]-1H-imidazole-4-carbonyl}-amino)-benzoic Acid], at gastrin receptor, the Kb is 12 nM. In addition, the Ki at CCKB receptor is 141 nM.
As to `CC(C(=O)O)c1cccc(NC(=O)c2nc(C3CCCCC3)[nH]c2CCC23CC4CC(CC(C4)C2)C3)c1` (racemic) [Example 255, (±)-2-(3-{[5-(2-Adamantan-1-yl-ethyl)-2-cyclohexyl-1H-imidazole-4-carbonyl]-amino}-phenyl)-propionic Acid], on gastrin receptor, the Kb is 178 nM. The Ki on CCKB receptor is 1.41 nM.
As to `Cc1ccc(NC(=O)c2nc(C3CCC4CC3C4(C)C)[nH]c2CCC23CC4CC(CC(C4)C2)C3)cc1C(=O)O` (stereo not drawn) [Example 191, 5-{[5-(2-Adamantan-1-yl-ethyl)-2-(6,6-dimethyl-bicyclo[3.1.1]hept-2-yl)-1H-imidazole-4-carbonyl]-amino}-2-methyl-benzoic Acid], on gastrin receptor, the Kb is 67.6 nM. The Ki at CCKB receptor is 28.8 nM.
With `O=C(O)c1cccc(NC(=O)c2[nH]c(-c3ccccc3)nc2CCC23CC4CC(CC(C4)C2)C3)c1` [Example 47, 3-{[5-(2-Adamantan-1-yl-ethyl)-2-phenyl-1H-imidazole-4-carbonyl]-amino}-benzoic Acid], the Kb at gastrin receptor is 234 nM. Also, the Ki at CCKB receptor was 251 nM.
For the compound `Cc1ccccc1-c1nc(C(=O)Nc2cccc(C(=O)O)c2)c(CCc2ccccc2)[nH]1` [Example 87, 3-[(5-Phenethyl-2-o-tolyl-1H-imidazole-4-carbonyl)-amino]-benzoic Acid], the Kb at gastrin receptor is 1170 nM. The Ki on CCKB receptor is 2690 nM.
As to `Nc1ccc(C(=O)O)cc1NC(=O)c1nc(C2CCCCC2)[nH]c1CCC12CC3CC(CC(C3)C1)C2` [Example 131, 3-{[5-(2-Adamantan-1-yl-ethyl)-2-cyclohexyl-1H-imidazole-4-carbonyl]-amino}-4-amino-benzoic Acid], the Kb at gastrin receptor is 339 nM. Further, the Ki at CCKB receptor was 407 nM.
On the same counts, the results for `Cc1ccc(NC(=O)c2nc(-c3ccccc3C)[nH]c2CCC23CC4CC(CC(C4)C2)C3)cc1C(=O)O` [Example 106, 5-{[5-(2-Adamantan-1-yl-ethyl)-2-o-tolyl-1H-imidazole-4-carbonyl]-amino}-2-methyl-benzoic Acid] are 6.31 nM and 5.89 nM.
As to `O=C(O)c1cccc(NC(=O)c2[nH]c(C3CCCCCC3)nc2CCC23CC4CC(CC(C4)C2)C3)c1` [Example 79, 3-{[5-(2-Adamantan-1-yl-ethyl)-2-cycloheptyl-1H-imidazole-4-carbonyl]-amino}-benzoic Acid], at gastrin receptor, the Kb was 5.37 nM. The Ki on CCKB receptor was 11.7 nM.
In the case of `Cc1ccc(NC(=O)c2nc(-c3ccco3)[nH]c2CCC23CC4CC(CC(C4)C2)C3)cc1C(=O)O` [Example 187, 5-{[5-(2-Adamantan-1-yl-ethyl)-2-furan-2-yl-1H-imidazole-4-carbonyl]-amino}-2-methyl-benzoic Acid], the Kb at gastrin receptor was 75.9 nM. In addition, on CCKB receptor, the Ki is 60.3 nM.
For `Cc1ccc(NC(=O)c2nc(-c3ccccc3C)n(C)c2CCC23CC4CC(CC(C4)C2)C3)cc1C(=O)O` [Example 161, 5-{[5-(2-Adamantan-1-yl-ethyl)-1-methyl-2-o-tolyl-1H-imidazole-4-carbonyl]-amino}-2-methyl-benzoic Acid], at gastrin receptor, the Kb is 81.3 nM. On CCKB receptor, the Ki is 38.9 nM.
Taken in the same sequence, the figures for `Cc1ccccc1-c1nc(C(=O)Nc2ccc(N)c(C(=O)O)c2)c(CCC23CC4CC(CC(C4)C2)C3)[nH]1` [Example 241, 5-{[5-(2-Adamantan-1-yl-ethyl)-2-o-tolyl-1H-imidazole-4-carbonyl]-amino}-2-amino-benzoic Acid Dihydrochloride] were 4680 nM and 60.3 nM.
On the same counts, the results for `O=C(O)c1cccc(NC(=O)c2nc(-c3c(F)cccc3F)[nH]c2CCC23CC4CC(CC(C4)C2)C3)c1` [Example 61, 3-{[5-(2-Adamantan-1-yl-ethyl)-2-(2,6-difluoro-phenyl)-1H-imidazole-4-carbonyl]-amino}-benzoic Acid] are 31.6 nM and 148 nM.
For `Cc1ccc(NC(=O)c2nc(C3CCCO3)[nH]c2CCC23CC4CC(CC(C4)C2)C3)cc1C(=O)O` (stereo not drawn) [Example 188, 5-{[5-(2-Adamantan-1-yl-ethyl)-2-(tetrahydro-furan-2-yl)-1H-imidazole-4-carbonyl]-amino}-2-methyl-benzoic Acid], the Kb on gastrin receptor was 7.76 nM. Besides, the Ki on CCKB receptor is 25.7 nM.
Take `CN1CCC[C@@H]1c1nc(C(=O)Nc2cccc(C(=O)O)c2)c(CCC23CC4CC(CC(C4)C2)C3)[nH]1` [Example 143]: the Kb at gastrin receptor is 60.3 nM. Further, the Ki on CCKB receptor was 191 nM.
In the case of `CCc1ccccc1-c1nc(C(=O)Nc2cccc(C(=O)O)c2)c(CCC23CC4CC(CC(C4)C2)C3)[nH]1` [Example 158, 3-{[5-(2-Adamantan-1-yl-ethyl)-2-(2-ethyl-phenyl)-1H-imidazole-4-carbonyl]-amino}-benzoic Acid], the Kb at gastrin receptor was 105 nM. Besides, on CCKB receptor, the Ki was 759 nM.
Consider `Cc1ccc(NC(=O)c2nc(C3CCCCC3)[nH]c2COC23CC4CC(CC(C4)C2)C3)cc1C(=O)O` [Example 217, 5-{[5-(Adamantan-1-yloxymethyl)-2-cyclohexyl-1H-imidazole-4-carbonyl]-amino}-2-methyl-benzoic Acid], for which the Kb on gastrin receptor was 3.98 nM. For the same compound, on CCKB receptor, the Ki was 3.98 nM.
For `Cc1ccc(NC(=O)c2nc(C3CCCCC3)[nH]c2CCC2C3CC4CC(C3)CC2C4)cc1C(=O)O` (stereo not drawn) [Example 173, 5-{[5-(2-Adamantan-2-yl-ethyl)-2-cyclohexyl-1H-imidazole-4-carbonyl]-amino}-2-methyl-benzoic Acid], at gastrin receptor, the Kb is 4.79 nM. Further, the Ki at CCKB receptor was 6.17 nM.
Take `Cc1cc(C)c(-c2nc(C(=O)Nc3cccc(C(=O)O)c3)c(CCC34CC5CC(CC(C5)C3)C4)[nH]2)c(C)c1` [Example 154, 3-{[5-(2-Adamantan-1-yl-ethyl)-2-(2,4,6-trimethyl-phenyl)-1H-imidazole-4-carbonyl]-amino}-benzoic Acid]: on gastrin receptor, the Kb is 8.71 nM. The Ki on CCKB receptor was 24.5 nM.
Take `Cc1ccccc1-c1nc(C(=O)Nc2ccc(Cl)c(C(=O)O)c2)c(CCC23CC4CC(CC(C4)C2)C3)[nH]1` [Example 245, 5-{[5-(2-Adamantan-1-yl-ethyl)-2-o-tolyl-1H-imidazole-4-carbonyl]-amino}-2-chloro-benzoic Acid]: on gastrin receptor, the Kb is 240 nM. For the same compound, the Ki at CCKB receptor is 6.46 nM.
As to `Cc1ccc(NC(=O)c2nc(-c3cccc(Cl)c3Cl)[nH]c2CCC23CC4CC(CC(C4)C2)C3)cc1C(=O)O` [Example 150, 5-{[5-(2-Adamantan-1-yl-ethyl)-2-(2,3-dichlorophenyl)-1H-imidazole-4-carbonyl]-amino}-2-methyl-benzoic Acid], at gastrin receptor, the Kb was 646 nM. Further, the Ki on CCKB receptor was 145 nM.

(Values after patent publication US6479531B1, “Gastrin and cholecystokinin receptor ligands” (James Black Foundation Limited, priority 1998, dated 2002).)
